# Tests used:
# Assay in all cases: Test C preemergence
# Format in all cases: in vivo
# Conditions in all cases: scale 0 to 100
# [1] = tested on: Italian ryegrass (Lolium multiflorum)
# How it was run: (§1)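 Greenhouse test; preemergence to seeds in loam/sand soil, or postemergence spray to 2-18 cm, 1- to 4-leaf plants in peat/vermiculite medium; compound in non-phytotoxic solvent plus surfactant. Visual rating vs controls at 13-15 d, 0 = no effect, 100 = complete control.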
# [2] = tested on: blackgrass (Alopecurus myosuroides)
# How it was run: as §1
# corn (Zea mays) = tested on: corn (Zea mays)
# How it was run: as §1
# [3] = tested on: galium (catchweed bedstraw, Galium aparine)
# How it was run: as §1
# [4] = tested on: giant foxtail (Setaria faberii)
# How it was run: as §1
# [5] = tested on: johnsongrass (Sorghum halepense)
# How it was run: as §1
# [6] = tested on: large (Lg) crabgrass (Digitaria sanguinalis)
# How it was run: as §1
# [7] = tested on: morningglory (Ipomoea coccinea)
# How it was run: as §1
# [8] = tested on: oilseed rape (Brassica napus)
# How it was run: as §1
# [9] = tested on: pigweed (Amaranthus retroflexus)
# How it was run: as §1
# [10] = tested on: ragweed (common ragweed, Ambrosia elatior)
# How it was run: as §1
# soybean (Glycine max) = tested on: soybean (Glycine max)
# How it was run: as §1
# [11] = tested on: velvetleaf (Abutilon theophrasti)
# How it was run: as §1
# [12] = tested on: waterhemp (common waterhemp, Amaranthus rudis)
# How it was run: as §1
# [13] = tested on: winter wheat (Triticum aestivum)
# How it was run: as §1
# [14] = tested on: yellow nutsedge (Cyperus esculentus)
# How it was run: as §1
smiles,measurement,setting,value
FC(F)(F)c1cnc(Oc2c(Br)cccc2Oc2ncc(Cl)cn2)nc1 [Compound 24],"Plant response rating, Ryegrass, Italian","[1]; 31 g ai/ha, Preemergence",55
same,"Plant response rating, Ryegrass, Italian","[1]; 62 g ai/ha, Preemergence",90
same,"Plant response rating, Ryegrass, Italian","[1]; 125 g ai/ha, Preemergence",95
same,"Plant response rating, Ryegrass, Italian","[1]; 250 g ai/ha, preemergence",95
same,"Plant response rating, Blackgrass","[2]; 31 g ai/ha, Preemergence",60
same,"Plant response rating, Blackgrass","[2]; 62 g ai/ha, Preemergence",95
same,"Plant response rating, Blackgrass","[2]; 125 g ai/ha, Preemergence",95
same,"Plant response rating, Blackgrass","[2]; 250 g ai/ha, preemergence",95
same,"Plant response rating, Corn","corn (Zea mays); 31 g ai/ha, Preemergence",5
same,"Plant response rating, Corn","corn (Zea mays); 62 g ai/ha, Preemergence",20
same,"Plant response rating, Corn","corn (Zea mays); 125 g ai/ha, Preemergence",45
same,"Plant response rating, Corn","corn (Zea mays); 250 g ai/ha, preemergence",65
same,"Plant response rating, Galium","[3]; 31 g ai/ha, Preemergence",98
same,"Plant response rating, Galium","[3]; 62 g ai/ha, Preemergence",98
same,"Plant response rating, Galium","[3]; 125 g ai/ha, Preemergence",100
same,"Plant response rating, Galium","[3]; 250 g ai/ha, preemergence",100
same,"Plant response rating, Foxtail, Giant","[4]; 31 g ai/ha, Preemergence",98
same,"Plant response rating, Foxtail, Giant","[4]; 62 g ai/ha, Preemergence",98
same,"Plant response rating, Foxtail, Giant","[4]; 125 g ai/ha, Preemergence",100
same,"Plant response rating, Foxtail, Giant","[4]; 250 g ai/ha, preemergence",100
same,"Plant response rating, Johnsongrass","[5]; 31 g ai/ha, Preemergence",40
same,"Plant response rating, Johnsongrass","[5]; 62 g ai/ha, Preemergence",55
same,"Plant response rating, Johnsongrass","[5]; 125 g ai/ha, Preemergence",80
same,"Plant response rating, Johnsongrass","[5]; 250 g ai/ha, preemergence",100
same,"Plant response rating, Crabgrass, Large","[6]; 31 g ai/ha, Preemergence",100
same,"Plant response rating, Crabgrass, Large","[6]; 62 g ai/ha, Preemergence",100
same,"Plant response rating, Crabgrass, Large","[6]; 125 g ai/ha, Preemergence",100
same,"Plant response rating, Crabgrass, Large","[6]; 250 g ai/ha, preemergence",100
same,"Plant response rating, Morningglory","[7]; 31 g ai/ha, Preemergence",25
same,"Plant response rating, Morningglory","[7]; 62 g ai/ha, Preemergence",85
same,"Plant response rating, Morningglory","[7]; 125 g ai/ha, Preemergence",80
same,"Plant response rating, Morningglory","[7]; 250 g ai/ha, preemergence",95
same,"Plant response rating, Oilseed Rape","[8]; 31 g ai/ha, Preemergence",80
same,"Plant response rating, Oilseed Rape","[8]; 62 g ai/ha, Preemergence",100
same,"Plant response rating, Oilseed Rape","[8]; 125 g ai/ha, Preemergence",100
same,"Plant response rating, Oilseed Rape","[8]; 250 g ai/ha, preemergence",100
same,"Plant response rating, Pigweed","[9]; 31 g ai/ha, Preemergence",100
same,"Plant response rating, Pigweed","[9]; 62 g ai/ha, Preemergence",100
same,"Plant response rating, Pigweed","[9]; 125 g ai/ha, Preemergence",100
same,"Plant response rating, Pigweed","[9]; 250 g ai/ha, preemergence",100
same,"Plant response rating, Ragweed","[10]; 31 g ai/ha, Preemergence",10
same,"Plant response rating, Ragweed","[10]; 62 g ai/ha, Preemergence",10
same,"Plant response rating, Ragweed","[10]; 125 g ai/ha, Preemergence",30
same,"Plant response rating, Ragweed","[10]; 250 g ai/ha, preemergence",80
same,"Plant response rating, Soybean","soybean (Glycine max); 62 g ai/ha, Preemergence",40
same,"Plant response rating, Soybean","soybean (Glycine max); 125 g ai/ha, Preemergence",50
same,"Plant response rating, Soybean","soybean (Glycine max); 250 g ai/ha, preemergence",85
same,"Plant response rating, Velvetleaf","[11]; 31 g ai/ha, Preemergence",40
same,"Plant response rating, Velvetleaf","[11]; 62 g ai/ha, Preemergence",85
same,"Plant response rating, Velvetleaf","[11]; 125 g ai/ha, Preemergence",90
same,"Plant response rating, Velvetleaf","[11]; 250 g ai/ha, preemergence",90
same,"Plant response rating, Waterhemp","[12]; 31 g ai/ha, Preemergence",100
same,"Plant response rating, Waterhemp","[12]; 62 g ai/ha, Preemergence",100
same,"Plant response rating, Waterhemp","[12]; 125 g ai/ha, Preemergence",100
same,"Plant response rating, Waterhemp","[12]; 250 g ai/ha, preemergence",100
same,"Plant response rating, Wheat","[13]; 31 g ai/ha, Preemergence",15
same,"Plant response rating, Wheat","[13]; 62 g ai/ha, Preemergence",30
same,"Plant response rating, Wheat","[13]; 125 g ai/ha, Preemergence",60
same,"Plant response rating, Wheat","[13]; 250 g ai/ha, preemergence",90
same,"Plant response rating, Nutsedge, Yellow","[14]; 31 g ai/ha, Preemergence",10
same,"Plant response rating, Nutsedge, Yellow","[14]; 62 g ai/ha, Preemergence",10
same,"Plant response rating, Nutsedge, Yellow","[14]; 125 g ai/ha, Preemergence",30
same,"Plant response rating, Nutsedge, Yellow","[14]; 250 g ai/ha, preemergence",60

# — patent publication US20170190671A1, “BIS(ARYL)CATECHOL DERIVATIVES AS HERBICIDES” (E I DU PONT DE NEMOURS AND COMPANY, priority 2014, published 2017)
